The source of these data is US9549911B2, “Ginger metabolites and uses thereof” (North Carolina A&T State University, priority 2012, dated 2017).

Data set [1] deals with human colon cancer cells HCT-116. Kind of data set: MTT growth inhibition of human cancer and normal cells (Part 2). In kind it is cell-based. Conditions: HCT-116, 48 h, 0 to 80 μM. As to the method:
(§1) Growth inhibition of human cancer and normal cells. Cell growth inhibition was determined by a MTT colorimetric assay. Human colon cancer cells HCT-116, human lung cancer cells H-1299, human colon fibroblast cells CCD-18Co, and human lung fibroblast cells IMR-90 were plated in 96-well microtiter plates with 3000 cells/well and allowed to attach for 24 h at 37° C. […] After the cells were cultured for 48 h, the medium was aspirated and cells were treated with 200 μL fresh medium containing 2.41 mmol/L MTT. […] The reading reflected the number of viable cells and was expressed as a percentage of viable cells in the control. Both HCT-116 and H-1299 cells were cultured in McCoy's 5A medium. CCD-18Co and IMR-90 cells were cultured in Eagle's modified essential medium (EMEM). All of the above media were supplemented with 10% fetal bovine serum, 1% penicillin/streptomycin, and 1% glutamine, and the cells were kept in a 37° C. incubator with 95% humidity and 5% CO2.

Data set [2] concerns human lung cancer cells H-1299. The description is as above. In kind it is cell-based. Conditions: H-1299, 48 h, 0 to 80 μM. As for the experimental part:
as §1

In another data set the test system is A549 lung cancer cells. Conditions: for tumor weight lower (minus % compared to DMSO-treated control): after 7 weeks; for BrdU+ cells/field in tumor tissue: control about 6.3; for TUNEL+ cells/field in tumor tissue: control about 15.5; for tumor size versus control group: 6S 30 mg/kg, M2 30 mg/kg, M14 10 mg/kg, oral gavage 5×/week. As to the method: Nu/J nude mice were obtained from Jackson Laboratories (Bar Harbor, Me.). Animals were randomized into 4 groups. A549 cells (5×10^6 cells) were implanted in both flanks of 8-weeks old Nu/J mice. One week after implantation, animals were given 100 μl of the following treatments through oral gavage 5 times/week: DMSO 0.25 ml/kg (control; n=4); 6S 10 mg/kg (n=4); 6S 30 mg/kg (n=4) or M2 30 mg/kg (n=5). Compounds were diluted in a solution of 5% DMSO in corn oil. Animal body weight and tumor volume were recorded for the duration of the experiment. Tumor volume was calculated by measuring the length and width of the tumors using a digital caliper and using the formula (Length×Width^2)/2. One hour before sacrifice, mice were given one last treatment dose as well as one intra-peritoneal injection of BrdU (7.5 mg/kg in 100 μl PBS). After 7 weeks, tumor tissues were harvested and weighed. A portion of the tumors was snap frozen in liquid nitrogen and another portion was placed in a histology cassette and immersed in formalin solution.
[…] tissues were sent to Precision Histology Lab (Oklahoma City, Okla.) for embedding in paraffin blocks. Then paraffin blocks were processed into 3-4 μm sections that were then put on microscope slides. Sections were then deparaffinized by using a succession of 3 baths of xylene (5 minutes each), 2 baths of absolute ethanol (5 minutes each), 95% ethanol for 3 minutes, 70% ethanol for 3 minutes, and rinsed in PBS. Immunostaining with TUNEL (terminal deoxynucleotidyl transferase dUTP nick end labeling) and BrdU staining kits was performed following manufacturer's recommendation. For staining quantification, sequential high-power field pictures of tumors were taken (10 pictures per tumor) using an A1 Zeiss microscope (Oberkochen, Germany). Images were processed using the Image J software, which was used to count positive, brown-colored cells in each field. Average number per tumor was calculated by averaging the number obtained for each field, and the average number of positive cells per group was obtained by averaging the values of each tumor belonging to the experimental group.
8 week-old nude mice (Jackson Laboratory, Maine) were randomized into 5 groups based on treatment (DMSO: n=4; 6S 10 mg/kg: n=4 (“6S 10”); 6S 30 mg/kg: n=4 (“6S 30”); M2 30 mg/kg: n=5 (“M2 30”); M14 10 mg/kg: n=4 (“M14 10”)). Animals were implanted with 5×10^6 A549 lung cancer cells (adenocarcinomic human alveolar basal epithelial cells) on each flank. The mice had access to food and water ad libitum. One week post implantation, the animals started receiving their respecting treatments through oral gavage (100 μl in corn oil and 5% DMSO), 5×/week. After 7 weeks of treatment, the tumor tissues were harvested.

The test system of a further data set is A549 cancer cells. The data set is described as follows: MTT cell viability (Part 4). It is filed as cell-based, human. Conditions: A549, 24 hours, read-out: IC50 (toxicity, MTT).
Another data set deals with HCT-116 cells. The data set is described as follows: Western blot analysis of apoptosis markers and p53 (Part 5). In kind it is cell-based, human. Conditions: for p53 expression (Western blot): HCT-116 (p53 wild-type), 24 hours, M2, 6S 10, 20 or 40 μM, 8S, M2′, 10S, M2″ 20 μM. As to the method:
(§2) Cell lysates were prepared in ice-cold RIPA lysis buffer [25 mM Tris-HCl (pH 7.6), 150 mM NaCl, 1% NP-40, 1% sodium deoxycholate, 0.1% SDS, Thermo Fisher Scientific] supplemented with a protease inhibitor cocktail (AEBSF, aprotinin, bestatin, E-64, leupeptin and pepstatin A in DMSO with EDTA, Thermo Fisher Scientific). Protein content was measured by a Pierce BCA Assay Kit (Thermo Fisher Scientific). Protein contents of cell lysates (30 μg protein/lane) were resolved by SDS-PAGE. Proteins were then electro-transferred onto PVDF membranes and blots were blocked for one hour at room temperature in 1×TBS with 1% Casein (Bio-Rad Laboratories, Berkeley, Calif.). Blots were then incubated overnight at 4° C. with the desired primary antibody diluted in TBS with 0.5% Tween-20. Blots were then washed with TBS-Tween 20 and probed for 1 hour with the appropriate secondary antibody (1:1000). Protein bands were visualized with chemiluminescence using West Femto maximum detection substrate (Thermo Fisher Scientific). To confirm equal protein loading in each lane, immunoblots were stripped and re-probed for β-actin. Protein fold-induction was calculated by normalizing the intensity of the band of interest to β-actin first, and then to DMSO control lanes.
(In general: A western blot detects proteins with antibodies after separation by electrophoresis.)

The next data set has as its system HT-29 cells. Described as above. It is filed as cell-based, human. Conditions: for p53 expression (Western blot): HT-29 (p53 mutant), 24 hours, M2, 6S 10, 20 or 40 μM, 8S, M2′, 10S, M2″ 20 μM. As to the method: as §2
The mark [3] stands for this setting: M2 30 mg/kg vs 6S 30 mg/kg, 7 weeks.

Like-named read-outs stand apart in the source and are kept apart here.

In the case of `CCCCCC(CC(=O)CCc1ccc(O)c(OC)c1)SC[C@H](N)C(=O)O` (stereo partly shown) [M2, 5-cysteinyl-[6]-shogaol], the IC50 (in general, the concentration needed to halve the response being measured) in data set [1] amounted to 24.4 µM. In addition, inhibition in data set [2] was half-maximal at 25.8 µM (IC50). Also, the “tumor weight lower (minus % compared to DMSO-treated control)” value in the data set on A549 lung cancer cells (30 mg/kg oral gavage 5×/week) was 53.7%. In addition, in the data set on A549 lung cancer cells (30 mg/kg), the “BrdU+ cells/field in tumor tissue” value is on record as 5.7 BrdU+ cells/field and the “TUNEL+ cells/field in tumor tissue” value worked out at 28.6 TUNEL+ cells/field. Also, in the data set on A549 lung cancer cells (7 weeks), the “tumor size versus control group” value was “Reduction in tumor size”. Besides, in the data set with A549 lung cancer cells (setting [3]), the “decrease of tumor burden relative to the equivalent 6S group” value was determined as 21.8% and the “lower tumor burden than the equivalent 6S group compared to DMSO” value was 12.9%. For the same compound, the “changes in body weight between groups” value in the data set with A549 lung cancer cells (oral gavage up to 7 weeks) is “did not induce any significant changes in body weight”. The IC50 in the data set with A549 cancer cells was determined as 30.4 µM. In the data set on HCT-116 cells, the “p53 expression (Western blot)” value was “dose-dependent up-regulation of p53”. In addition, in the data set with HCT-116 cells (HCT-116, 40 μM), the “Bcl-2 levels (Western blot, vs DMSO)” value is on record as “undetectable”; the “PUMA induction (Western blot, vs DMSO)” value was around 17 fold; the “XIAP expression (Western blot, vs DMSO)” value is reported as “undetectable”; the “cleaved caspase 9 (Western blot, vs DMSO)” value is around 4.6 fold. Also, the “cytochrome c release (Western blot, vs DMSO)” value with HCT-116 cells (HCT-116, 40 μM) is reported as around 2.2 fold. Further, the “p53 expression (Western blot)” value with HT-29 cells is on record as “dose-dependent up-regulation of p53”. In addition, in the data set on HT-29 cells (HT-29, 40 μM), the “Bcl-2 levels (Western blot, vs DMSO)” value is recorded as around 0.1 fold; the “PUMA induction (Western blot, vs DMSO)” value is listed as around 17 fold; the “XIAP expression (Western blot, vs DMSO)” value is around 0.3 fold; the “cleaved caspase 9 (Western blot, vs DMSO)” value is around 4.6 fold. Moreover, the “cytochrome c release (Western blot, vs DMSO)” value in the data set on HT-29 cells (HT-29, 40 μM) is reported as around 2.2 fold.
In the case of `CCCCC/C=C/C(=O)CCc1ccc(O)c(OC)c1` [[6]-shogaol, reference compound], the half-maximal inhibitory concentration (IC50) was determined as 18.2 µM in data set [1], 17.9 µM in data set [2] and 25.2 µM in the data set on A549 cancer cells (listed as 6S). For the same compound, the “tumor weight lower (minus % compared to DMSO-treated control)” value is 25.6% in the data set on A549 lung cancer cells (10 mg/kg oral gavage 5×/week, not significant) and 40.8% in the data set on A549 lung cancer cells (30 mg/kg oral gavage 5×/week). Also, the figures for the “BrdU+ cells/field in tumor tissue” value in the data set with A549 lung cancer cells (10 mg/kg) and in the data set with A549 lung cancer cells (30 mg/kg) were 4.7 BrdU+ cells/field and 3.4 BrdU+ cells/field, respectively. The figures for the “TUNEL+ cells/field in tumor tissue” value with A549 lung cancer cells (10 mg/kg) and with A549 lung cancer cells (30 mg/kg) were 27.8 TUNEL+ cells/field and 32.6 TUNEL+ cells/field, respectively. Also, the “tumor size versus control group” value in the data set on A549 lung cancer cells (7 weeks) was “Reduction in tumor size”. Also, the “p53 expression (Western blot)” value with HCT-116 cells and with HT-29 cells was “dose-dependent up-regulation of p53” each time.
